Experimental data from ChEMBL document CHEMBL1275558 (Antimicrob Agents Chemother, 2008).

Columns and labels:
[1] = Therapeutic index, ration of TD50 for human foreskin fibroblast cell infected with Toxoplasma gondii to ID 50 for Toxoplasma gondii; assay type: cell-based; settings: read-out: TI
[2] = tested on: Toxoplasma gondii; test: Antimicrobial activity against Toxoplasma gondii; assay type: functional; settings: read-out: ID50 (the source's name)
[3] = Cytotoxicity against human foreskin fibroblast cell infected with Toxoplasma gondii; assay type: cell-based; settings: read-out: TD50 (the source's name)

SMILES	selectivity ratio [1]	IC50 [2]	CC50 [3]
O=C1Nc2ccc(F)cc2/C1=C1/Nc2ccccc2/C1=N\O	120	0.52 µM	61 µM
Cc1ccc2c(c1)/C(=C1/Nc3ccccc3/C1=N\O)C(=O)N2	–	> 500 µM	> 500 µM
O=C1c2cc(F)ccc2-n2c1nc1ccccc1c2=O	31500	0.002 µM	63 µM
Cc1ccc2[nH]c(O)c(C3=Nc4ccccc4C3=O)c2c1	–	> 500 µM	> 500 µM
O=C1C(c2c(O)[nH]c3ccc(S(=O)(=O)O)cc23)=Nc2ccccc21	–	> 500 µM	> 500 µM
O=C1Nc2cc(Cl)c(Br)cc2/C1=C1/Nc2ccccc2/C1=N\O	> 210	2.4 µM	> 500 µM
O=C1c2cc(I)ccc2-n2c1nc1ccccc1c2=O	–	0.02 µM	> 500 µM
O=C1c2ccc(Cl)cc2-n2c1nc1ccccc1c2=O	> 80	6.3 µM	> 500 µM
O=C1c2ccc(Br)cc2-n2c1nc1ccccc1c2=O	> 160	3 µM	> 500 µM
O=C1Nc2ccccc2/C1=C1/Nc2ccccc2/C1=N\OCC(O)CO (stereo not given)	> 2	230 µM	> 500 µM
O=C1c2cc(Br)c(Cl)cc2-n2c1nc1ccccc1c2=O	59	1.7 µM	100 µM
O=C1Nc2cc(Cl)c(Br)cc2/C1=C1/Nc2ccccc2C1=O	–	> 500 µM	> 500 µM
CC(=O)N1C(=O)/C(=C2\Nc3ccccc3C2=O)c2ccccc21	> 16	30 µM	> 500 µM
O=Nc1c(-c2c(O)[nH]c3cc(Cl)ccc23)[nH]c2ccccc12	110	0.18 µM	20 µM
O=C1C(c2c(O)[nH]c3ccc(I)cc23)=Nc2ccccc21	11	22 µM	240 µM
O=C1C(c2c(O)[nH]c3ccc(Br)cc23)=Nc2ccccc21	> 19	27 µM	> 500 µM
O=C1C(c2c(O)[nH]c3ccc([N+](=O)[O-])cc23)=Nc2ccccc21	–	> 500 µM	> 500 µM

SMILES	selectivity ratio [1]	IC50 [2]	CC50 [3]
CC(=O)O/N=C1/C(c2c(O)[nH]c3ccccc23)=Nc2ccccc21	100	0.21 µM	22 µM
O=C1c2cc(Cl)ccc2-n2c1nc1ccccc1c2=O	33000	0.011 µM	360 µM
Cc1ccc2c(c1)C(=O)c1nc3ccccc3c(=O)n1-2	> 6100	0.082 µM	> 500 µM
O=Nc1c(-c2c(O)[nH]c3ccc(I)cc23)[nH]c2ccccc12	5	9.7 µM	47 µM
O=C1C(c2c(O)[nH]c3ccc(Cl)cc23)=Nc2ccccc21	> 8	60 µM	> 500 µM
O=C1C(c2c(O)[nH]c3ccc(F)cc23)=Nc2ccccc21	–	> 500 µM	> 500 µM
O=C1C(c2c(O)[nH]c3cc(Cl)ccc23)=Nc2ccccc21	–	> 500 µM	> 500 µM
O=Nc1c(-c2c(O)[nH]c3ccc([N+](=O)[O-])cc23)[nH]c2ccccc12	25	1.1 µM	27 µM
O=C1Nc2ccc(S(=O)(=O)O)cc2/C1=C1/Nc2ccccc2/C1=N\O	–	> 500 µM	> 500 µM
O=C1Nc2ccc(Cl)cc2/C1=C1/Nc2ccccc2/C1=N\O	23	2.2 µM	51 µM
O=C1c2cc(Br)ccc2-n2c1nc1ccccc1c2=O	> 160000	0.003 µM	> 500 µM
CC(=O)O/N=C1/C(=C2/C(=O)Nc3cc(Br)ccc32)Nc2ccccc21 [6-BROMOINDIRUBIN-3'-ACETOXIME]	12	3.7 µM	46 µM
O=C1Nc2cc(Br)ccc2/C1=C1/Nc2ccccc2/C1=N\O [6BIO]	–	–	16 µM
O=C1Nc2ccc(Br)cc2/C1=C1/Nc2ccccc2/C1=N\O [INDIRUBIN 2]	9	1.8 µM	17 µM
O=Nc1c(-c2c(O)[nH]c3ccccc23)[nH]c2ccccc12 [INDIRUBIN-3-MONOXIME]	> 139	3.6 µM	> 500 µM
O=C1Nc2ccccc2/C1=C1/Nc2ccccc2C1=O [INDIRUBIN]	–	> 500 µM	> 500 µM
O=C1c2ccccc2-n2c1nc1ccccc1c2=O [TRYPTANTHRIN]	2000	0.031 µM	62 µM
